Measurements published in PubChem BioAssay (NCI).
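Following 48 hours of exposure in 96-well plates, responses at five concentrations were used to interpolate endpoints linearly. TGI is the concentration that stops growth completely.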

Key:
Experiment in all cases: inhibition of tumour cell growth, NCI panel, 48 h
786-0 renal = test system: 786-0 renal
A498 renal = test system: A498 renal
A549 NSCLC = test system: A549 NSCLC
ACHN renal = test system: ACHN renal
BT-549 breast = test system: BT-549 breast
CCRF-CEM leukemia = test system: CCRF-CEM leukemia
COLO 205 colon = test system: COLO 205 colon
DU-145 prostate = test system: DU-145 prostate
EKVX NSCLC = test system: EKVX NSCLC
HCT-116 colon = test system: HCT-116 colon
HCT-15 colon = test system: HCT-15 colon
HL-60(TB) leukemia = test system: HL-60(TB) leukemia
HOP-62 NSCLC = test system: HOP-62 NSCLC
HOP-92 NSCLC = test system: HOP-92 NSCLC
HS 578T breast = test system: HS 578T breast
HT29 colon = test system: HT29 colon
IGROV1 ovarian = test system: IGROV1 ovarian
K-562 leukemia = test system: K-562 leukemia
KM12 colon = test system: KM12 colon
LOX IMVI melanoma = test system: LOX IMVI melanoma
M14 melanoma = test system: M14 melanoma
MALME-3M melanoma = test system: MALME-3M melanoma
MCF7 breast = test system: MCF7 breast
MDA-MB-231 breast = test system: MDA-MB-231 breast
MDA-MB-435 = test system: MDA-MB-435
MDA-N = test system: MDA-N
MOLT-4 leukemia = test system: MOLT-4 leukemia
NCI-H226 lung = test system: NCI-H226 lung
NCI-H23 lung = test system: NCI-H23 lung
NCI-H460 lung = test system: NCI-H460 lung
NCI/ADR-RES ovarian = test system: NCI/ADR-RES ovarian
OVCAR-3 ovarian = test system: OVCAR-3 ovarian
OVCAR-4 ovarian = test system: OVCAR-4 ovarian
OVCAR-5 ovarian = test system: OVCAR-5 ovarian
OVCAR-8 ovarian = test system: OVCAR-8 ovarian
PC-3 prostate = test system: PC-3 prostate
RPMI-8226 leukemia = test system: RPMI-8226 leukemia
RXF 393 renal = test system: RXF 393 renal
SF-268 CNS = test system: SF-268 CNS
SF-295 CNS = test system: SF-295 CNS
SF-539 CNS = test system: SF-539 CNS
SK-MEL-2 melanoma = test system: SK-MEL-2 melanoma
SK-MEL-28 melanoma = test system: SK-MEL-28 melanoma
SK-MEL-5 melanoma = test system: SK-MEL-5 melanoma
SK-OV-3 ovarian = test system: SK-OV-3 ovarian
SN12C renal = test system: SN12C renal
SNB-19 CNS = test system: SNB-19 CNS
SNB-75 CNS = test system: SNB-75 CNS
SR leukemia = test system: SR leukemia
SW-620 colon = test system: SW-620 colon
T-47D breast = test system: T-47D breast
TK-10 renal = test system: TK-10 renal
U251 CNS = test system: U251 CNS
UACC-257 melanoma = test system: UACC-257 melanoma
UACC-62 melanoma = test system: UACC-62 melanoma
UO-31 renal = test system: UO-31 renal

**Q.** For CC(C(=O)n1ccnc1)N1c2ccccc2Sc2ccccc21 (stereo unspecified), which TGI (786-0 renal) is on record?
**A.** The TGI was greater than 100 µM.

**Q.** And the TGI (A498 renal)?
**A.** Its TGI is greater than 100 µM.

**Q.** What about the TGI (A549 NSCLC) of the same compound?
**A.** Its TGI is greater than 100 µM.

**Q.** And the TGI (ACHN renal)?
**A.** The TGI was greater than 100 µM.

**Q.** What about the TGI (BT-549 breast) of the same compound?
**A.** Its TGI is greater than 100 µM.

**Q.** And the TGI (CCRF-CEM leukemia)?
**A.** Its TGI is greater than 100 µM.

**Q.** What about the TGI (COLO 205 colon) of the same compound?
**A.** The TGI was greater than 100 µM.

**Q.** What about the TGI (DU-145 prostate) of the same compound?
**A.** Its TGI is greater than 100 µM.

**Q.** And the TGI (EKVX NSCLC)?
**A.** Its TGI is greater than 100 µM.

**Q.** And the TGI (HCT-116 colon)?
**A.** Its TGI is greater than 100 µM.

**Q.** What about the TGI (HCT-15 colon) of the same compound?
**A.** Its TGI is greater than 100 µM.

**Q.** And the TGI (HL-60(TB) leukemia)?
**A.** Its TGI is greater than 100 µM.

**Q.** What about the TGI (HOP-62 NSCLC) of the same compound?
**A.** Its TGI is greater than 100 µM.

**Q.** What about the TGI (HOP-92 NSCLC) of the same compound?
**A.** The TGI was 79.9 µM.

**Q.** What about the TGI (HS 578T breast) of the same compound?
**A.** Its TGI is greater than 100 µM.

**Q.** What about the TGI (HT29 colon) of the same compound?
**A.** The TGI was greater than 100 µM.

**Q.** And the TGI (IGROV1 ovarian)?
**A.** Its TGI is greater than 100 µM.

**Q.** What about the TGI (K-562 leukemia) of the same compound?
**A.** Its TGI is greater than 100 µM.

**Q.** What about the TGI (KM12 colon) of the same compound?
**A.** Its TGI is greater than 100 µM.

**Q.** What about the TGI (LOX IMVI melanoma) of the same compound?
**A.** The TGI was greater than 100 µM.

**Q.** What about the TGI (M14 melanoma) of the same compound?
**A.** Its TGI is greater than 100 µM.

**Q.** And the TGI (MALME-3M melanoma)?
**A.** Its TGI is greater than 100 µM.

**Q.** And the TGI (MCF7 breast)?
**A.** Its TGI is greater than 100 µM.

**Q.** What about the TGI (MDA-MB-231 breast) of the same compound?
**A.** The TGI was greater than 100 µM.

**Q.** What about the TGI (MDA-MB-435) of the same compound?
**A.** The TGI was greater than 100 µM.

**Q.** What about the TGI (MDA-N) of the same compound?
**A.** The TGI was greater than 100 µM.

**Q.** And the TGI (MOLT-4 leukemia)?
**A.** The TGI was greater than 100 µM.

**Q.** And the TGI (NCI-H226 lung)?
**A.** Its TGI is greater than 100 µM.

**Q.** What about the TGI (NCI-H23 lung) of the same compound?
**A.** The TGI was greater than 100 µM.

**Q.** What about the TGI (NCI-H460 lung) of the same compound?
**A.** The TGI was greater than 100 µM.

**Q.** What about the TGI (NCI/ADR-RES ovarian) of the same compound?
**A.** Its TGI is greater than 100 µM.

**Q.** And the TGI (OVCAR-3 ovarian)?
**A.** Its TGI is greater than 100 µM.

**Q.** And the TGI (OVCAR-4 ovarian)?
**A.** Its TGI is greater than 100 µM.

**Q.** And the TGI (OVCAR-5 ovarian)?
**A.** Its TGI is greater than 100 µM.

**Q.** And the TGI (OVCAR-8 ovarian)?
**A.** The TGI was greater than 100 µM.

**Q.** What about the TGI (PC-3 prostate) of the same compound?
**A.** Its TGI is greater than 100 µM.

**Q.** And the TGI (RPMI-8226 leukemia)?
**A.** The TGI was greater than 100 µM.

**Q.** And the TGI (RXF 393 renal)?
**A.** The TGI was greater than 100 µM.

**Q.** And the TGI (SF-268 CNS)?
**A.** The TGI was greater than 100 µM.

**Q.** What about the TGI (SF-295 CNS) of the same compound?
**A.** Its TGI is greater than 100 µM.

**Q.** And the TGI (SF-539 CNS)?
**A.** Its TGI is greater than 100 µM.

**Q.** What about the TGI (SK-MEL-2 melanoma) of the same compound?
**A.** Its TGI is greater than 100 µM.

**Q.** What about the TGI (SK-MEL-28 melanoma) of the same compound?
**A.** The TGI was greater than 100 µM.

**Q.** What about the TGI (SK-MEL-5 melanoma) of the same compound?
**A.** Its TGI is greater than 100 µM.

**Q.** And the TGI (SK-OV-3 ovarian)?
**A.** The TGI was greater than 100 µM.

**Q.** What about the TGI (SN12C renal) of the same compound?
**A.** The TGI was greater than 100 µM.

**Q.** What about the TGI (SNB-19 CNS) of the same compound?
**A.** Its TGI is greater than 100 µM.

**Q.** What about the TGI (SNB-75 CNS) of the same compound?
**A.** The TGI was greater than 100 µM.

**Q.** And the TGI (SR leukemia)?
**A.** Its TGI is greater than 100 µM.

**Q.** What about the TGI (SW-620 colon) of the same compound?
**A.** The TGI was greater than 100 µM.

**Q.** And the TGI (T-47D breast)?
**A.** Its TGI is greater than 100 µM.

**Q.** What about the TGI (TK-10 renal) of the same compound?
**A.** Its TGI is greater than 100 µM.

**Q.** What about the TGI (U251 CNS) of the same compound?
**A.** The TGI was greater than 100 µM.

**Q.** And the TGI (UACC-257 melanoma)?
**A.** The TGI was greater than 100 µM.

**Q.** What about the TGI (UACC-62 melanoma) of the same compound?
**A.** The TGI was greater than 100 µM.

**Q.** And the TGI (UO-31 renal)?
**A.** The TGI was greater than 100 µM.
